Source: patent US9738634B2, “Heterocyclic amide compound and herbicide” (SYNGENTA PARTICIPATIONS AG, priority 2013, dated 2017)

Assays:
Type in all cases: in vivo
Details in all cases: treatment dosage 320 g/ha
[1] = tested on: chickweed; experiment: Test Example 4: weedkilling efficacy by foliar treatment; N: chickweed
How it was run: (§1)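 Seeds are spot-sown into sterilized diluvial soil and covered with about 1.5 cm of soil. After 14 days' greenhouse growth at 25 to 30° C, plants are sprayed on stems and leaves with diluted emulsion at the stated g/ha rate, then scored at 3 weeks.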

[2] = tested on: transplanted rice; experiment: Test Example 1: preemergent weed treatment in the submerged state, effect on crop; a: transplanted rice
How it was run: (§2)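 Pots of alluvial soil were flooded to a 4 cm depth. Mixed weed seeds were sown and 2.5 leaf-stage rice seedlings transplanted. On sowing day, water-diluted emulsion was applied to the water surface (dose in g/ha). After 3 weeks at 25–30 °C, effects were rated.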

[3] = tested on: barnyard grass; experiment: Test Example 2: weedkilling efficacy, growth period weed treatment in the submerged state; A: barnyard grass
How it was run: (§3)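 Weeds treated at the 1-2 leaf stage by application of diluted emulsion onto floodwater (4 cm depth, alluvial soil) at specified g/ha. Grown in greenhouse at 25 to 30° C; herbicidal effect rated three weeks after treatment.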

[4] = tested on: soybean; experiment: Test Example 4: foliar treatment, effect on crop; d: soybean
How it was run: as §1

[5] = tested on: directly sown rice; experiment: Test Example 3: soil treatment, effect on crop; b: directly sown rice
How it was run: (§4)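 Crop and weed responses were judged three weeks after a uniform surface spray of the water-diluted emulsion at the given g/ha rate. Seeds sat beneath about 1.5 cm of sterilized diluvial soil, and boxes stood in a greenhouse at 25 to 30° C.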

[6] = tested on: redroot pigweed; experiment: Test Example 3: weedkilling efficacy through soil treatment; L: redroot pigweed
How it was run: as §4

[7] = tested on: Italian ryegrass; experiment: Test Example 4: weedkilling efficacy by foliar treatment; I: Italian ryegrass
How it was run: as §1

[8] = tested on: redroot pigweed; experiment: Test Example 4: weedkilling efficacy by foliar treatment; L: redroot pigweed
How it was run: as §1

[9] = tested on: green foxtail; experiment: Test Example 4: weedkilling efficacy by foliar treatment; E: green foxtail
How it was run: as §1

[10] = tested on: corn; experiment: Test Example 4: foliar treatment, effect on crop; c: corn
How it was run: as §1

[11] = tested on: beet; experiment: Test Example 4: foliar treatment, effect on crop; f: beet
How it was run: as §1

[12] = tested on: wild oat; experiment: Test Example 3: weedkilling efficacy through soil treatment; G: wild oat
How it was run: as §4

[13] = tested on: birds-eye speedwell; experiment: Test Example 3: weedkilling efficacy through soil treatment; p: birds-eye speedwell
How it was run: as §4

[14] = tested on: chickweed; experiment: Test Example 3: weedkilling efficacy through soil treatment; N: chickweed
How it was run: as §4

[15] = tested on: beet; experiment: Test Example 3: soil treatment, effect on crop; f: beet
How it was run: as §4

[16] = tested on: Indian mallow; experiment: Test Example 4: weedkilling efficacy by foliar treatment; K: Indian mallow
How it was run: as §1

[17] = tested on: oval-leafed pondweed; experiment: Test Example 2: weedkilling efficacy, growth period weed treatment in the submerged state; C: oval-leafed pondweed
How it was run: as §3

[18] = tested on: rapeseed; experiment: Test Example 3: soil treatment, effect on crop; g: rapeseed
How it was run: as §4

[19] = tested on: directly sown rice; experiment: Test Example 4: foliar treatment, effect on crop; b: directly sown rice
How it was run: as §1

[20] = tested on: crabgrass; experiment: Test Example 4: weedkilling efficacy by foliar treatment; D: crabgrass
How it was run: as §1

[21] = tested on: barnyard grass; experiment: Test Example 1: weedkilling efficacy, preemergent weed treatment in the submerged state; A: barnyard grass
How it was run: as §2

[22] = tested on: soybean; experiment: Test Example 3: soil treatment, effect on crop; d: soybean
How it was run: as §4

[23] = tested on: rapeseed; experiment: Test Example 4: foliar treatment, effect on crop; g: rapeseed
How it was run: as §1

[24] = tested on: crabgrass; experiment: Test Example 3: weedkilling efficacy through soil treatment; D: crabgrass
How it was run: as §4

[25] = tested on: common wind-grass; experiment: Test Example 3: weedkilling efficacy through soil treatment; J: common wind-grass
How it was run: as §4

[26] = tested on: Indian mallow; experiment: Test Example 3: weedkilling efficacy through soil treatment; K: Indian mallow
How it was run: as §4

[27] = tested on: bulrush; experiment: Test Example 1: weedkilling efficacy, preemergent weed treatment in the submerged state; B: bulrush
How it was run: as §2

[28] = tested on: birds-eye speedwell; experiment: Test Example 4: weedkilling efficacy by foliar treatment; p: birds-eye speedwell
How it was run: as §1

[29] = tested on: catchweed; experiment: Test Example 4: weedkilling efficacy by foliar treatment; O: catchweed
How it was run: as §1

[30] = tested on: barnyard grass; experiment: Test Example 4: weedkilling efficacy by foliar treatment; F: barnyard grass
How it was run: as §1

[31] = tested on: wheat; experiment: Test Example 4: foliar treatment, effect on crop; e: wheat
How it was run: as §1

[32] = tested on: black-grass; experiment: Test Example 4: weedkilling efficacy by foliar treatment; H: black-grass
How it was run: as §1

[33] = tested on: wheat; experiment: Test Example 3: soil treatment, effect on crop; e: wheat
How it was run: as §4

[34] = tested on: fig-leafed goosefoot; experiment: Test Example 4: weedkilling efficacy by foliar treatment; M: fig-leafed goosefoot
How it was run: as §1

[35] = tested on: black-grass; experiment: Test Example 3: weedkilling efficacy through soil treatment; H: black-grass
How it was run: as §4

[36] = tested on: Italian ryegrass; experiment: Test Example 3: weedkilling efficacy through soil treatment; I: Italian ryegrass
How it was run: as §4

[37] = tested on: corn; experiment: Test Example 3: soil treatment, effect on crop; c: corn
How it was run: as §4

[38] = tested on: barnyard grass; experiment: Test Example 3: weedkilling efficacy through soil treatment; F: barnyard grass
How it was run: as §4

[39] = tested on: wild oat; experiment: Test Example 4: weedkilling efficacy by foliar treatment; G: wild oat
How it was run: as §1

[40] = tested on: oval-leafed pondweed; experiment: Test Example 1: weedkilling efficacy, preemergent weed treatment in the submerged state; C: oval-leafed pondweed
How it was run: as §2

[41] = tested on: fig-leafed goosefoot; experiment: Test Example 3: weedkilling efficacy through soil treatment; M: fig-leafed goosefoot
How it was run: as §4

[42] = tested on: bulrush; experiment: Test Example 2: weedkilling efficacy, growth period weed treatment in the submerged state; B: bulrush
How it was run: as §3

[43] = tested on: green foxtail; experiment: Test Example 3: weedkilling efficacy through soil treatment; E: green foxtail
How it was run: as §4

[44] = tested on: common wind-grass; experiment: Test Example 4: weedkilling efficacy by foliar treatment; J: common wind-grass
How it was run: as §1

COc1cc(F)nc(NC(=O)C(C)(C)N2COC(C)=C(c3ccccc3)C2=O)c1 [B-2-41]
N (chickweed) weedkilling efficacy grade [1]: 4 (weed kill ratio 70% or more, less than 90%) | a (transplanted rice) effect on crop grade [2]: 3 (weed kill ratio 40% or more, less than 70%) | A (barnyard grass) weedkilling efficacy grade [3]: 5 (weed kill ratio 90% or more, (practically complete withering)) | d (soybean) effect on crop grade [4]: 4 (weed kill ratio 70% or more, less than 90%) | b (directly sown rice) effect on crop grade [5]: 4 (weed kill ratio 70% or more, less than 90%) | L (redroot pigweed) weedkilling efficacy grade [6]: 3 (weed kill ratio 40% or more, less than 70%) | I (Italian ryegrass) weedkilling efficacy grade [7]: 5 (weed kill ratio 90% or more, (practically complete withering)) | L (redroot pigweed) weedkilling efficacy grade [8]: 4 (weed kill ratio 70% or more, less than 90%) | E (green foxtail) weedkilling efficacy grade [9]: 5 (weed kill ratio 90% or more, (practically complete withering)) | c (corn) effect on crop grade [10]: 4 (weed kill ratio 70% or more, less than 90%) | f (beet) effect on crop grade [11]: 4 (weed kill ratio 70% or more, less than 90%) | G (wild oat) weedkilling efficacy grade [12]: 3 (weed kill ratio 40% or more, less than 70%) | P (birds-eye speedwell) weedkilling efficacy grade [13]: 5 (weed kill ratio 90% or more, (practically complete withering)) | N (chickweed) weedkilling efficacy grade [14]: 4 (weed kill ratio 70% or more, less than 90%) | f (beet) effect on crop grade [15]: 3 (weed kill ratio 40% or more, less than 70%) | K (Indian mallow) weedkilling efficacy grade [16]: 5 (weed kill ratio 90% or more, (practically complete withering)) | C (oval-leafed pondweed) weedkilling efficacy grade [17]: 5 (weed kill ratio 90% or more, (practically complete withering)) | g (rapeseed) effect on crop grade [18]: 4 (weed kill ratio 70% or more, less than 90%) | b (directly sown rice) effect on crop grade [19]: 4 (weed kill ratio 70% or more, less than 90%) | D (crabgrass) weedkilling efficacy grade [20]: 5 (weed kill ratio 90% or more, (practically complete withering)) | A (barnyard grass) weedkilling efficacy grade [21]: 5 (weed kill ratio 90% or more, (practically complete withering)) | d (soybean) effect on crop grade [22]: 0 (weed kill ratio 5% or less (practically no effect)) | g (rapeseed) effect on crop grade [23]: 5 (weed kill ratio 90% or more, (practically complete withering)) | D (crabgrass) weedkilling efficacy grade [24]: 5 (weed kill ratio 90% or more, (practically complete withering)) | J (common wind-grass) weedkilling efficacy grade [25]: 5 (weed kill ratio 90% or more, (practically complete withering)) | K (Indian mallow) weedkilling efficacy grade [26]: 2 (weed kill ratio 20% or more, less than 40%) | B (bulrush) weedkilling efficacy grade [27]: 5 (weed kill ratio 90% or more, (practically complete withering)) | P (birds-eye speedwell) weedkilling efficacy grade [28]: 5 (weed kill ratio 90% or more, (practically complete withering)) | O (catchweed) weedkilling efficacy grade [29]: 5 (weed kill ratio 90% or more, (practically complete withering)) | F (barnyard grass) weedkilling efficacy grade [30]: 5 (weed kill ratio 90% or more, (practically complete withering)) | e (wheat) effect on crop grade [31]: 0 (weed kill ratio 5% or less (practically no effect)) | H (black-grass) weedkilling efficacy grade [32]: 5 (weed kill ratio 90% or more, (practically complete withering)) | e (wheat) effect on crop grade [33]: 0 (weed kill ratio 5% or less (practically no effect)) | M (fig-leafed goosefoot) weedkilling efficacy grade [34]: 3 (weed kill ratio 40% or more, less than 70%) | H (black-grass) weedkilling efficacy grade [35]: 5 (weed kill ratio 90% or more, (practically complete withering)) | I (Italian ryegrass) weedkilling efficacy grade [36]: 5 (weed kill ratio 90% or more, (practically complete withering)) | c (corn) effect on crop grade [37]: 0 (weed kill ratio 5% or less (practically no effect)) | F (barnyard grass) weedkilling efficacy grade [38]: 5 (weed kill ratio 90% or more, (practically complete withering)) | G (wild oat) weedkilling efficacy grade [39]: 3 (weed kill ratio 40% or more, less than 70%) | C (oval-leafed pondweed) weedkilling efficacy grade [40]: 5 (weed kill ratio 90% or more, (practically complete withering)) | M (fig-leafed goosefoot) weedkilling efficacy grade [41]: 4 (weed kill ratio 70% or more, less than 90%) | B (bulrush) weedkilling efficacy grade [42]: 5 (weed kill ratio 90% or more, (practically complete withering)) | E (green foxtail) weedkilling efficacy grade [43]: 5 (weed kill ratio 90% or more, (practically complete withering)) | J (common wind-grass) weedkilling efficacy grade [44]: 5 (weed kill ratio 90% or more, (practically complete withering))
